Measured values taken from article PMC6492551 (Carbohydrate research, 2019).

Each molecule was assayed against CA II (Homo sapiens, UniProt P00918) (assay: esterase assay, p-nitrophenyl acetate hydrolysis).
Format: biochemical

Structure (SMILES)	IC50 [nM]
O=C1NS(=O)(=O)c2cc(-n3cc(CO[C@@H]4O[C@H](CO)[C@@H](O)[C@H](O)[C@H]4O)nn3)ccc21 [1a, saccharin-glycoconjugate 1a]	> 2000
O=C1NS(=O)(=O)c2cc(-n3cc(CCO[C@@H]4O[C@H](CO)[C@H](O)[C@H](O)[C@H]4O)nn3)ccc21 [1c, saccharin-glycoconjugate 1c]	> 2000
O=C1NS(=O)(=O)c2cc(-n3cc(CO[C@@H]4O[C@H](CO)[C@H](O)[C@H](O)[C@H]4O)nn3)ccc21 [1b, saccharin-glycoconjugate 1b]	> 2000
